Reference: patent publication US20050182025A1, “Amidinylphenyl compounds and their use as fungicides” (priority 2002, published 2005)

Key:
Format in all cases: in vivo
[1] = test system: Erysiphe graminis f. sp. tritici; test: Test A: preventive spray on wheat seedlings, wheat powdery mildew, disease rating; conditions: wheat seedlings sprayed to run-off, inoculated the following day with Erysiphe graminis f. sp. tritici, rated after 7 days at 20° C.; test concentration not given
From the text: General protocol for preparing test suspensions: Test compounds were first dissolved in acetone in an amount equal to 3% of the final volume and then suspended at the desired concentration (in ppm) in acetone and purified water (50/50 mix) containing 250 ppm of the surfactant Trem® 014 (polyhydric alcohol esters). The resulting test suspensions were then used in the following tests. Spraying a 200 ppm test suspension to the point of run-off on the test plants was the equivalent of a rate of 500 g/ha. The test suspension was sprayed to the point of run-off on wheat seedlings. The following day the seedlings were inoculated with a spore dust of Erysiphe graminis f. sp. tritici, (the causal agent of wheat powdery mildew) and incubated in a growth chamber at 20° C. for 7 days, after which disease ratings were made. Results for Tests A-C are given in Table A. In the table, a rating of 100 indicates 100% disease control and a rating of 0 indicates no disease control (relative to the controls). A dash (-) indicates no test results.

Septoria nodorum = test: Test C: preventive spray on wheat seedlings, Septoria glume blotch, disease rating; conditions: wheat seedlings sprayed to run-off, inoculated the following day with Septoria nodorum, 48 h saturated atmosphere then 9 days at 20° C.; test concentration not given
From the text: (§1) General protocol for preparing test suspensions: Test compounds were first dissolved in acetone in an amount equal to 3% of the final volume and then suspended at the desired concentration (in ppm) in acetone and purified water (50/50 mix) containing 250 ppm of the surfactant Trem® 014 (polyhydric alcohol esters). The resulting test suspensions were then used in the following tests. Spraying a 200 ppm test suspension to the point of run-off on the test plants was the equivalent of a rate of 500 g/ha. The test suspension was sprayed to the point of run-off on wheat seedlings. The following day the seedlings were inoculated with a spore suspension of Septoria nodorum (the causal agent of Septoria glume blotch) and incubated in a saturated atmosphere at 20° C. for 48 h, and then moved to a growth chamber at 20° C. for 9 days, after which disease ratings were made. Results for Tests A-C are given in Table A. In the table, a rating of 100 indicates 100% disease control and a rating of 0 indicates no disease control (relative to the controls). A dash (-) indicates no test results.

Puccinia recondita = test: Test B: preventive spray on wheat seedlings, wheat leaf rust, disease rating; conditions: wheat seedlings sprayed to run-off, inoculated the following day with Puccinia recondita, 24 h saturated atmosphere then 6 days at 20° C.; test concentration not given
From the text: as §1, with “Puccinia recondita” for “Septoria nodorum”, “wheat leaf rust)” for “Septoria glume blotch)”, “24” for “48”, “6” for “9”

Row | SMILES | Test A disease control rating (100 = 100% disease control, 0 = no disease control relative to the controls) [1] | Test C disease control rating (100 = 100% disease control, 0 = no disease control relative to the controls) (Septoria nodorum) | Test B disease control rating (100 = 100% disease control, 0 = no disease control relative to the controls) (Puccinia recondita)
1 | Cc1cc(OCCCC(C)C)c(C)cc1N=CN(C)C [Compound 13, N′-[2,5-Dimethyl-4-[(4-methylpentyl)oxy]-phenyl]-N,N-dimethylmethanimidamide] | 97% | 100% | 100%
2 | CC(C)=CCC[C@H](C)CCOc1cc(C)c(N=CN(C)C)cc1C [Compound 14] | 90% | 0% | 100%
3 | CC(C)=CCC[C@@H](C)CCOc1cc(C)c(N=CN(C)C)cc1C [Compound 15] | 94% | 0% | 100%
4 | Cc1cc(OCCCCCl)c(C)cc1N=CN(C)C [Compound 16] | 88% | 97% | 100%
5 | Cc1cc(OCCCCCCl)c(C)cc1N=CN(C)C [Compound 17] | 92% | 100% | 100%
6 | CCCCC(C)Oc1cc(C)c(N=CN(C)C)cc1C (stereo not drawn) [Compound 18] | 98% | 98% | 100%
7 | CCCCCOc1cc(C)c(N=CN(C)C)cc1C [Compound 19] | 96% | 100% | 100%
8 | CCCCCCOc1cc(C)c(N=CN(C)C)cc1C [Compound 20] | 96% | 99% | 100%
9 | CCCCCCCOc1cc(C)c(N=CN(C)C)cc1C [Compound 21] | 98% | 96% | 100%
10 | CCCCCCCCOc1cc(C)c(N=CN(C)C)cc1C [Compound 22] | 98% | 88% | 100%
11 | CCCCCCCCCOc1cc(C)c(N=CN(C)C)cc1C [Compound 23] | 97% | 13% | 98%
12 | CCCCCCCCCCOc1cc(C)c(N=CN(C)C)cc1C [Compound 24] | 86% | 0% | 23%
13 | CCCCCCCCCCCCOc1cc(C)c(N=CN(C)C)cc1C [Compound 25] | 0% | 0% | 90%
